Holding throughout (type): cell-based
The subject of data set [1] is human red blood cells (hRBC). Put plainly: Hemolysis. Particulars: red cells of human, 1 h, 200. In a few lines: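 Washed fresh human RBC (20% v/v) incubated with peptide at 200 μg/mL for 1 h at 37° C with shaking. Supernatant OD540 measured after dilution, blank corrected; percent hemolysis = OD540 peptide / OD540 of 2% Triton X-100 lysis × 100, PBS with 10% water as 0%.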

Another data set relates to Escherichia coli 926415. Particulars: 926415. A digest of the protocol:
(§1)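 Standard CLSI microdilution testing: bacterial suspensions standardized against 0.5 McFarland to about 10^6 CFU/mL in MH-II broth meet serially halved peptide concentrations in broth containing 0.002% polysorbate 80; incubation lasts 18-20 h at 35° C before the MIC is scored.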

The subject of data set [2] is Klebsiella pneumoniae 968733. Conditions: 968733. A digest of the protocol:
as §1

The test system of data set [3] is Klebsiella pneumoniae SSI #3010. Conditions: SSI #3010. In a few lines:
as §1

The subject of data set [4] is Pseudomonas aeruginosa ATCC 27853. Conditions: ATCC 27853. A digest of the protocol: as §1
For data set [5], the system named is Escherichia coli ATCC 25922. Particulars: ATCC 25922. In a few lines:
as §1

Data set [6] deals with Enterobacter cloacae 848840. Conditions: 848840. A digest of the protocol: as §1
Data set [7] has as its system Acinetobacter baumannii DSM 30008. Conditions: DSM 30008. A digest of the protocol: as §1
Data set [8] has as its system Acinetobacter baumannii 872842. Particulars: 872842. A digest of the protocol: as §1

Converted amounts (≈) assume the structure as drawn. Where a SMILES comes first, the peptide text is derived from it. Bridges are numbered along the chain shown (N, C = ends). Roman numbers before positions name the chains, in order. [ ]: non-standard residue; d: D form. Thr(ol) = C[C@@H](O)[C@H](N)CO; Pen = CC(C)(S)[C@H](N)C(=O)O; Tle = CC(C)(C)[C@H](N)C(=O)O; Hiv = CC(C)[C@H](O)C(=O)O; dDab = NCC[C@@H](N)C(=O)O; hSer = N[C@@H](CCO)C(=O)O; Orn = NCCC[C@H](N)C(=O)O; Dab = NCC[C@H](N)C(=O)O; Dap = NC[C@H](N)C(=O)O Where only a bound is given, the exact number is not on record here.

On to `CC(C)C[C@@H]1NC(=O)[C@@H](CC(C)C)NC(=O)[C@H](CCN)NC(=O)[C@@H](NC(=O)[C@H](CCN)NC(=O)[C@@H](NC(=O)[C@H](CCN)NC(=O)CC[C@@H]2NC(=O)[C@H](CCN)NC(=O)[C@H](Cc3ccc(O)cc3)NC(=O)[C@@H](NC(=O)[C@@H](O)C(C)C)CSSC[C@@H](C(=O)N[C@H](CO)[C@@H](C)O)NC(=O)[C@H](C(C)(C)C)NC(=O)[C@H](CO)NC(=O)[C@H](Cc3c[nH]c4ccccc34)NC(=O)[C@H](CCO)NC(=O)[C@@H](CCCNC(=N)N)NC2=O)[C@@H](C)O)CCNC(=O)[C@H]([C@@H](C)O)NC(=O)[C@H](CCN)NC(=O)[C@H](CCN)NC1=O` [Ex. 75] (I: H-[Hiv]CY[Dab]E[dR][hSer]WS[Tle]C[Thr(ol)] / II: [Dab]T[Dab][Dab][Dab][dL]L[Dab][Dab]T; disulfide I:2-I:11; amide I:5-II:N; lactam II:4-II:C), for which the “Hemolysis at 200 μg/mL” value in data set [1] is reported as less than 1%. Besides, the MIC is 0.125 µg/mL (≈ 0.0509 µM) with Escherichia coli 926415; 0.125 µg/mL (≈ 0.0509 µM) in data set [2]; 0.125 µg/mL (≈ 0.0509 µM) in data set [3]; 0.125 µg/mL (≈ 0.0509 µM) in [4]; 0.0625 µg/mL (≈ 0.0254 µM) in [5]; 0.125 µg/mL (≈ 0.0509 µM) in [6]. Moreover, the minimal inhibitory concentration (MIC) in [7] and in data set [8] was 0.0625 µg/mL (≈ 0.0254 µM) throughout.

For `CC(=O)N[C@@H](CCN)C(=O)N[C@H](C(=O)N[C@H]1CSSC[C@@H](C(=O)N[C@H](C(=O)N[C@@H](C)C(=O)N[C@H](C(=O)N[C@@H](CCC(=O)O)C(N)=O)C(C)C)C(C)(C)C)NC(=O)[C@H](Cc2c[nH]c3ccccc23)NC(=O)[C@H](CO)NC(=O)[C@@H](CCN)NC(=O)[C@H](CCC(=O)N[C@@H](CCN)C(=O)N[C@H](C(=O)N[C@@H](CN)C(=O)N[C@H]2CCNC(=O)[C@H]([C@@H](C)O)NC(=O)[C@H](CCN)NC(=O)[C@H](CCN)NC(=O)[C@H](CC(C)C)NC(=O)[C@@H](CC(C)C)NC(=O)[C@H](CCN)NC2=O)[C@@H](C)O)NC(=O)[C@H](CN)NC(=O)[C@H](Cc2ccc(O)cc2)NC1=O)C(C)C` [Ex. 246] (I: Ac-[Dab]VCY[Dap]E[dDab]SWC[Tle]AVE-NH2 / II: [Dab]T[Dap][Dab][Dab][dL]L[Dab][Dab]T; disulfide I:3-I:10; amide I:6-II:N; lactam II:4-II:C), the “Hemolysis at 200 μg/mL” value in data set [1] is less than 1%. Further, the minimal inhibitory concentration (MIC) in the data set with Escherichia coli 926415 came out at 2 µg/mL (≈ 0.762 µM); in [2] it was 4 µg/mL (≈ 1.52 µM); in data set [3] it was 0.25 µg/mL (≈ 0.0953 µM); in [4], 0.25 µg/mL (≈ 0.0953 µM); in [5], 0.25 µg/mL (≈ 0.0953 µM); in data set [6], 2 µg/mL (≈ 0.762 µM). Besides, the MIC worked out at 0.5 µg/mL (≈ 0.191 µM) in data set [7] and 4 µg/mL (≈ 1.52 µM) in data set [8].

As for `CC(=O)N[C@H](C(=O)N[C@H]1CCCNC(=O)[C@@H]([C@H](C)O)NC(=O)[C@H](C(C)(C)C)NC(=O)[C@H](CO)NC(=O)[C@H](Cc2c[nH]c3ccccc23)NC(=O)[C@H](CCO)NC(=O)[C@@H](CCN)NC(=O)[C@H](CCC(=O)N[C@@H](CCN)C(=O)N[C@H](C(=O)N[C@@H](CN)C(=O)N[C@H]2CCNC(=O)[C@H]([C@@H](C)O)NC(=O)[C@H](CCN)NC(=O)[C@H](CCN)NC(=O)[C@H](CC(C)C)NC(=O)[C@@H](CC(C)C)NC(=O)[C@H](CCN)NC2=O)[C@@H](C)O)NC(=O)[C@H](CO)NC(=O)[C@H](Cc2ccc(O)cc2)NC1=O)C(C)C` [Ex. 18] (I: Ac-V[Orn]YSE[dDab][hSer]WS[Tle][dT] / II: [Dab]T[Dap][Dab][Dab][dL]L[Dab][Dab]T; lactam I:2-I:C, II:4-II:C; amide I:5-II:N), the “Hemolysis at 200 μg/mL” value in [1] worked out at 1%. Besides, the minimum inhibitory concentration (MIC) worked out at 0.25 µg/mL (≈ 0.108 µM) in the data set with Escherichia coli 926415; 0.5 µg/mL (≈ 0.215 µM) in [2]; 0.125 µg/mL (≈ 0.0539 µM) in data set [3]; 0.25 µg/mL (≈ 0.108 µM) in data set [4]; 0.0625 µg/mL (≈ 0.0269 µM) in [5]; 0.125 µg/mL (≈ 0.0539 µM) in [6]. Also, the MIC in [7] is 0.0625 µg/mL (≈ 0.0269 µM); in [8] it was 0.25 µg/mL (≈ 0.108 µM).

With `CC(C)C[C@@H]1NC(=O)[C@@H](CC(C)C)NC(=O)[C@H](CCN)NC(=O)[C@@H](NC(=O)[C@H](CCN)NC(=O)[C@@H](NC(=O)[C@H](CCN)NC(=O)CC[C@@H]2NC(=O)[C@H](CCN)NC(=O)[C@H](Cc3ccc(O)cc3)NC(=O)[C@@H](NC(=O)[C@@H](O)C(C)C)CSSC(C)(C)[C@@H](C(=O)N[C@H](CO)[C@@H](C)O)NC(=O)[C@H](C(C)(C)C)NC(=O)[C@H](CO)NC(=O)[C@H](Cc3c[nH]c4ccccc34)NC(=O)[C@H](CCO)NC(=O)[C@@H](CCN)NC2=O)[C@@H](C)O)CCNC(=O)[C@H]([C@@H](C)O)NC(=O)[C@H](CCN)NC(=O)[C@H](CCN)NC1=O` [Ex. 85] (I: H-[Hiv]CY[Dab]E[dDab][hSer]WS[Tle][Pen][Thr(ol)] / II: [Dab]T[Dab][Dab][Dab][dL]L[Dab][Dab]T; disulfide I:2-I:11; amide I:5-II:N; lactam II:4-II:C), the “Hemolysis at 200 μg/mL” value in [1] is reported as 1%. Moreover, the minimum inhibitory concentration (MIC) against Escherichia coli 926415 was 0.25 µg/mL (≈ 0.103 µM); in data set [2] it was 0.25 µg/mL (≈ 0.103 µM); in [3], 0.125 µg/mL (≈ 0.0515 µM); in [4], 0.25 µg/mL (≈ 0.103 µM); in data set [5] it was 0.0625 µg/mL (≈ 0.0257 µM); in data set [6], 0.125 µg/mL (≈ 0.0515 µM). Further, the MIC in data set [7] and in data set [8] was 0.25 µg/mL (≈ 0.103 µM) in each case.

As for `CC(=O)N[C@H](C(=O)N[C@H]1CSSC[C@@H](C(=O)N[C@@H](CO)C(N)=O)NC(=O)[C@H](C(C)C)NC(=O)[C@H](CO)NC(=O)[C@H](Cc2c[nH]c3ccccc23)NC(=O)[C@H]([C@@H](C)O)NC(=O)[C@@H](CCN)NC(=O)[C@H](CCC(=O)N[C@@H](CCN)C(=O)N[C@H](C(=O)N[C@@H](CCN)C(=O)N[C@H]2CCNC(=O)[C@H]([C@@H](C)O)NC(=O)[C@H](CCN)NC(=O)[C@H](CCN)NC(=O)[C@H](CC(C)C)NC(=O)[C@@H](CC(C)C)NC(=O)[C@H](CCN)NC2=O)[C@@H](C)O)NC(=O)[C@H](CCN)NC(=O)[C@H](Cc2ccc(O)cc2)NC1=O)C(C)C` [Ex. 45] (I: Ac-VCY[Dab]E[dDab]TWSVCS-NH2 / II: [Dab]T[Dab][Dab][Dab][dL]L[Dab][Dab]T; disulfide I:2-I:11; amide I:5-II:N; lactam II:4-II:C), the “Hemolysis at 200 μg/mL” value in data set [1] is given as less than 1%. The MIC in the data set on Escherichia coli 926415 was 0.5 µg/mL (≈ 0.206 µM); in data set [2] it was 0.5 µg/mL (≈ 0.206 µM); in [3], 0.125 µg/mL (≈ 0.0515 µM); in [4], 0.125 µg/mL (≈ 0.0515 µM); in data set [5], 0.0625 µg/mL (≈ 0.0258 µM); in [6] it was 0.25 µg/mL (≈ 0.103 µM). Further, the minimal inhibitory concentration (MIC) came to 0.0625 µg/mL (≈ 0.0258 µM) in [7] and 0.25 µg/mL (≈ 0.103 µM) in data set [8].

For the origin of these results see patent publication US11629171B2, “Beta-hairpin peptidomimetics” (POLYPHOR AG, priority 2017, dated 2023).
